Target: GST-Bcl-2 (Homo sapiens, UniProt P10415)
Test: Time Resolved-Fluorescence Resonance Energy Transfer (TR-FRET) Bcl-2 binding assay
Settings: competition with F-Bak peptide probe (100 nM); GST-Bcl-2 1 nM; Tb-anti-GST 1 nM; 3 hours at room temperature; Wang's equation
Experimental: Determination of the utility of compounds having Formula (I) as binders to and inhibitors of anti-apoptotic Bcl-2 proteins was performed using the Time Resolved-Fluorescence Resonance Energy Transfer (TR-FRET) Assay. Tb-anti-GST antibody was purchased from Invitrogen (Catalog No. PV4216).
(§1) Representative compounds were serially diluted in dimethyl sulfoxide (DMSO) starting at 50 μM (2× starting concentration; 10% DMSO) and 10 μL were transferred into a 384-well plate. The samples are then mixed on a shaker for 1 minute and incubated for an additional 3 hours at room temperature. For each assay, the probe/antibody and protein/probe/antibody were included on each assay plate as negative and positive controls, respectively. Fluorescence was measured on the Envision (Perkin Elmer) using a 340/35 nm excitation filter and 520/525 (F-Bak peptide) and 495/510 nm (Tb-labeled anti-Histidine antibody) emission filters.
as §1, with “The” for “Representative compounds were serially diluted in dimethyl sulfoxide (DMSO) starting at 50 μM (2× starting concentration; 10% DMSO) and 10 μL were transferred into a 384-well plate. The”, “were” for “are”
The inhibition constant (Ki) is the dissociation constant of an enzyme-inhibitor complex or a protein/small molecule complex, wherein the small molecule is inhibiting binding of one protein to another protein. So a large Ki value indicates a low binding affinity and a small Ki value indicates a high binding affinity.

GST-Bcl-2, sequence (P10415 whole entry): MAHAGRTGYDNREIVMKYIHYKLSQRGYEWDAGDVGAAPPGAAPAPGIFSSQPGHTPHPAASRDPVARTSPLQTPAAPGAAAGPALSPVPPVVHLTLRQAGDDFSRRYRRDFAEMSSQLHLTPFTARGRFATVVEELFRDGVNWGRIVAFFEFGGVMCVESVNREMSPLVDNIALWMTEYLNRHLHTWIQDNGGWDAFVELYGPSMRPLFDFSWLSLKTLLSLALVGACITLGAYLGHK

SMILES	Ki [nM]
CC1(C)CCC(CN2CCN(c3ccc(C(=O)NS(=O)(=O)c4ccc(OC[C@H]5CC[C@](C)(O)CC5)c([N+](=O)[O-])c4)c(Oc4cnc(N)c(Cl)c4)c3)CC2)=C(c2ccc(Cl)cc2)C1 [Example 441, 2-[(6-amino-5-chloropyridin-3-yl)oxy]-4-(4-{[2-(4-chlorophenyl)-4,4-dimethylcyclohex-1-en-1-yl]methyl}piperazin-1-yl)-N-({4-[(trans-4-hydroxy-4-methylcyclohexyl)methoxy]-3-nitrophenyl}sulfonyl)benzamide]	0.054
CC1(C)CCC(CN2CCN(c3ccc(C(=O)NS(=O)(=O)c4ccc(NC[C@H]5CN(C6CC6)CCO5)c([N+](=O)[O-])c4)c(Oc4cnc(N)c(Cl)c4)c3)CC2)=C(c2ccc(Cl)cc2)C1 [Example 442, 2-[(6-amino-5-chloropyridin-3-yl)oxy]-4-(4-{[2-(4-chlorophenyl)-4,4-dimethylcyclohex-1-en-1-yl]methyl}piperazin-1-yl)-N-{[4-({[(2S)-4-cyclopropylmorpholin-2-yl]methyl}amino)-3-nitrophenyl]sulfonyl}benzamide]	< 0.01
CC1(C)CCC(CN2CCN(c3ccc(C(=O)NS(=O)(=O)c4cnc(OCC5(F)CCC(C)(O)CC5)c(Cl)c4)c(Oc4cnc(N)c(Cl)c4)c3)CC2)=C(c2ccc(Cl)cc2)C1 (stereo not drawn) [Example 443, 2-[(6-amino-5-chloropyridin-3-yl)oxy]-N-({5-chloro-6-[(trans-1-fluoro-4-hydroxy-4-methylcyclohexyl)methoxy]pyridin-3-yl}sulfonyl)-4-(4-{[2-(4-chlorophenyl)-4,4-dimethylcyclohex-1-en-1-yl]methyl}piperazin-1-yl)benzamide]	0.029
CC1(C)CCC(CN2CCN(c3ccc(C(=O)NS(=O)(=O)c4cnc(OCC5(F)CCC(C)(O)CC5)c(Cl)c4)c(Oc4cnc(N)c(Cl)c4)c3)CC2)=C(c2ccc(Cl)cc2)C1 (stereo not drawn) [Example 444, 2-[(6-amino-5-chloropyridin-3-yl)oxy]-N-({5-chloro-6-[(cis-1-fluoro-4-hydroxy-4-methylcyclohexyl)methoxy]pyridin-3-yl}sulfonyl)-4-(4-{[2-(4-chlorophenyl)-4,4-dimethylcyclohex-1-en-1-yl]methyl}piperazin-1-yl)benzamide]	0.018
CC1(C)CCC(CN2CCN(c3ccc(C(=O)NS(=O)(=O)c4cnc(OCC5CCC(C)(O)CC5)c(Cl)c4)c(Oc4cccc5[nH]nc(N)c45)c3)CC2)=C(c2ccc(Cl)cc2)C1 (stereo not drawn) [Example 445, 2-[(3-amino-1H-indazol-4-yl)oxy]-N-({5-chloro-6-[(trans-4-hydroxy-4-methylcyclohexyl)methoxy]pyridin-3-yl}sulfonyl)-4-(4-{[2-(4-chlorophenyl)-4,4-dimethylcyclohex-1-en-1-yl]methyl}piperazin-1-yl)benzamide]	< 0.01
CC1(C)CCC(CN2CCN(c3ccc(C(=O)NS(=O)(=O)c4cnc(OCC5CCC(C)(O)CC5)c(Cl)c4)c(Oc4cccc5[nH]nc(Cl)c45)c3)CC2)=C(c2ccc(Cl)cc2)C1 (stereo not drawn) [Example 446, N-({5-chloro-6-[(trans-4-hydroxy-4-methylcyclohexyl)methoxy]pyridin-3-yl}sulfonyl)-2-[(3-chloro-1H-indazol-4-yl)oxy]-4-(4-{[2-(4-chlorophenyl)-4,4-dimethylcyclohex-1-en-1-yl]methyl}piperazin-1-yl)benzamide]	0.015
CCC1(O)CCC(CNc2ccc(S(=O)(=O)NC(=O)c3ccc(N4CCN(CC5=C(c6ccc(Cl)cc6)CC(C)(C)CC5)CC4)cc3Oc3cnc(N)c(Cl)c3)cc2[N+](=O)[O-])CC1 (stereo not drawn) [Example 447, 2-[(6-amino-5-chloropyridin-3-yl)oxy]-4-(4-{[2-(4-chlorophenyl)-4,4-dimethylcyclohex-1-en-1-yl]methyl}piperazin-1-yl)-N-[(4-{[(cis-4-ethyl-4-hydroxycyclohexyl)methyl]amino}-3-nitrophenyl)sulfonyl]benzamide]	0.029
CC1(C)CCC(CN2CCN(c3ccc(C(=O)NS(=O)(=O)c4ccc(NC[C@H]5CN(C6COC6)CCO5)c([N+](=O)[O-])c4)c(Oc4cnc(N)c(Cl)c4)c3)CC2)=C(c2ccc(Cl)cc2)C1 [Example 448, 2-[(6-amino-5-chloropyridin-3-yl)oxy]-4-(4-{[2-(4-chlorophenyl)-4,4-dimethylcyclohex-1-en-1-yl]methyl}piperazin-1-yl)-N-{[3-nitro-4-({[(2S)-4-(oxetan-3-yl)morpholin-2-yl]methyl}amino)phenyl]sulfonyl}benzamide]	< 0.01
CC1(C)CCC(CN2CCN(c3ccc(C(=O)NS(=O)(=O)c4cnc(NCC5CCOCC5)c([N+](=O)[O-])c4)c(Oc4cnc(N)c(Cl)c4)c3)CC2)=C(c2ccc(Cl)cc2)C1 [Example 449, 2-[(6-amino-5-chloropyridin-3-yl)oxy]-4-(4-{[2-(4-chlorophenyl)-4,4-dimethylcyclohex-1-en-1-yl]methyl}piperazin-1-yl)-N-({5-nitro-6-[(tetrahydro-2H-pyran-4-ylmethyl)amino]pyridin-3-yl}sulfonyl)benzamide]	< 0.01
CC1(C)CCC(CN2CCN(c3ccc(C(=O)NS(=O)(=O)c4ccc(NCC5CCC6(CC5)COC6)c([N+](=O)[O-])c4)c(Oc4cnc(N)c(Cl)c4)c3)CC2)=C(c2ccc(Cl)cc2)C1 [Example 450, 2-[(6-amino-5-chloropyridin-3-yl)oxy]-4-(4-{[2-(4-chlorophenyl)-4,4-dimethylcyclohex-1-en-1-yl]methyl}piperazin-1-yl)-N-({3-nitro-4-[(2-oxaspiro[3.5]non-7-ylmethyl)amino]phenyl}sulfonyl)benzamide]	< 0.01
CC1(C)CCC(CN2CCN(c3ccc(C(=O)NS(=O)(=O)c4ccc(NC[C@H]5CC[C@H](N6CCOCC6)CC5)c([N+](=O)[O-])c4)c(Oc4cnc(N)c(Cl)c4)c3)CC2)=C(c2ccc(Cl)cc2)C1 [Example 451, 2-[(6-amino-5-chloropyridin-3-yl)oxy]-4-(4-{[2-(4-chlorophenyl)-4,4-dimethylcyclohex-1-en-1-yl]methyl}piperazin-1-yl)-N-{[4-({[trans-4-(morpholin-4-yl)cyclohexyl]methyl}amino)-3-nitrophenyl]sulfonyl}benzamide]	< 0.01
CC1(C)CCC(CN2CCN(c3ccc(C(=O)NS(=O)(=O)c4ccc(N[C@H]5CC[C@@H](N6CCOCC6)CC5)c([N+](=O)[O-])c4)c(Oc4cnc(N)c(Cl)c4)c3)CC2)=C(c2ccc(Cl)cc2)C1 [Example 452, 2-[(6-amino-5-chloropyridin-3-yl)oxy]-4-(4-{[2-(4-chlorophenyl)-4,4-dimethylcyclohex-1-en-1-yl]methyl}piperazin-1-yl)-N-[(4-{[cis-4-(morpholin-4-yl)cyclohexyl]amino}-3-nitrophenyl)sulfonyl]benzamide]	0.112
CC1(C)CCC(CN2CCN(c3ccc(C(=O)NS(=O)(=O)c4cnc(OCC5CCC(C)(O)CC5)c(C#N)c4)c(Oc4cc(F)cc5[nH]ncc45)c3)CC2)=C(c2ccc(Cl)cc2)C1 (stereo not drawn) [Example 453, 4-(4-{[2-(4-chlorophenyl)-4,4-dimethylcyclohex-1-en-1-yl]methyl}piperazin-1-yl)-N-({5-cyano-6-[(trans-4-hydroxy-4-methylcyclohexyl)methoxy]pyridin-3-yl}sulfonyl)-2-[(6-fluoro-1H-indazol-4-yl)oxy]benzamide]	< 0.01
CC1(C)CCC(CN2CCN(c3ccc(C(=O)NS(=O)(=O)c4ccc(N[C@@H]5CCN(C6COC6)C5)c([N+](=O)[O-])c4)c(Oc4cnc(N)c(Cl)c4)c3)CC2)=C(c2ccc(Cl)cc2)C1 [Example 455, 2-[(6-amino-5-chloropyridin-3-yl)oxy]-4-(4-{[2-(4-chlorophenyl)-4,4-dimethylcyclohex-1-en-1-yl]methyl}piperazin-1-yl)-N-[(3-nitro-4-{[(3R)-1-(oxetan-3-yl)pyrrolidin-3-yl]amino}phenyl)sulfonyl]benzamide]	0.011
